≈ marks a conversion by molar mass, not a printed value. Like-named read-outs stand apart in the source and are kept apart here.
Legend:
[1] = tested on: blood pressure; assay: Hypotensive activity in anesthetized rat; assay type: in vivo, rat (Sprague-Dowley); conditions: intravenous, urethane-anesthetized rat
Experimental: A 8 weeks-old Sprague-Dowley strain rat was anesthetized with urethane (0.7 g/kg, i.p). Blood pressure was recorded from femoral artery using a transducer coupled to a Biophysiograph 180 system (made by Sanei Sokuki Co., Ltd.). The femoral vein was cannulated to permit intravenous injection of the test compound. The test compound was dissolved in saline and injected in a volume of 0.2 ml.

[2] = tested on: rabbit platelet aggregation; assay: Inhibition of rabbit platelet aggregation (turbidimetric, platelet rich plasma); assay type: cell-based, rabbit (male Japanese White); conditions: Oryctolagus cuniculus
Experimental: Inhibitory activity of the nitro aliphatic compounds of this invention against rabbit platelet aggregation was measured according to the method described below.
Blood was collected from the central ear arteries of male Japanese White rabbit (2.5 to 3.0 kg body weight). The blood was prevented from coagulation with 1 volume of 3.8% sodium citrate to 9 volumes of blood. Platelet rich plasma (PRP) was prepared by centrifugation of the blood at 1300 rpm for 10 min. at 10° C. The PRP was diluted with platelet poor plasma obtained by further centrifugation of the blood at 3000 rpm for 10 min. The platelet counts in the PRP used for aggregation studies were about 4.0×10^5 platelets/mm^3. Aggregometry was performed with platelet aggregating agents in a SIENCO dual sample aggregometer (DP-247E) at 37° C., using 0.3 ml combined volume of PRP and reagents in a cylindrical glass cuvette under constant stirring with a magnetic stirring bar. Platelet aggregation was measured turbidimetrically by recording changes in the light transmission of PRP during aggregation. Activities of inhibitors were expressed as IC50 values i.e. concentrations required to inhibit the platelet aggregation responses by 50%. Collagen was used in amounts (2 to 20 μg/ml for PRP) sufficient to induce a response that was 80 to 90% of the maximum obtainable. Arachidonic acid was used at a final concentration of 5 μM. Similarly a final concentration of adenosine di-phosphate (ADP), usually 1 to 5 μM was choosen to induce approximately 75% of the maximum aggregation. Thrombin was used at a final concentration of 0.3 U/ml.

[3] = Inducer: Thrombin (0.3 U/ml), Table 2, read-out: IC50, platelet aggregation

| Compound | IC50 [2, 3] [µg/mL] | further results |
| --- | --- | --- |
| CC/C(=C\C(=NO)C(N)=O)C(C)[N+](=O)[O-] (stereo not drawn) [Example 1, (E)-4-ethyl-2-hydroxyimino-5-nitro-3-hexenamide] | – | Hypotensive effect, Duration ([1]; 10 μg/kg): 1.5 min; Hypotensive effect, Maximal decrease ([1]; 10 μg/kg): 10 mm Hg; Hypotensive effect, Duration ([1]; 100 μg/kg): 4 min; Hypotensive effect, Maximal decrease ([1]; 100 μg/kg): 40 mm Hg; IC50 ([2]; inducer: ADP (usually 1 to 5 μM), read-out: IC50 value, platelet aggregation): 0.15 µg/mL (≈ 0.697 µM); IC50 ([2]; inducer: Arachidonic acid (5 μM), read-out: IC50 value, platelet aggregation): 0.75 µg/mL (≈ 3.48 µM); IC50 ([2]; inducer: Collagen (2 to 20 μg/ml), read-out: IC50 value, platelet aggregation): 0.07 µg/mL (≈ 0.325 µM); IC50 ([2]; inducer: Thrombin (0.3 U/ml), Table 1, read-out: IC50 value, platelet aggregation): 0.15 µg/mL (≈ 0.697 µM) |
| CCC(=CC(=NO)C(=O)N1CCN(C=O)CC1)C(C)[N+](=O)[O-] (stereo not drawn) [Example 4, 1-Formyl-4-(4-ethyl-2-hydroxyimino-5-nitro-3-hexenoyl)piperazine] | 0.3 (≈ 0.961 µM) | – |
| CCC(=CC(=NO)C(=O)N1CCCCC1)C(C)[N+](=O)[O-] (stereo not drawn) [Example 7, N-(4-Ethyl-2-hydroxyimino-5-nitro-3-hexenoyl)piperidine] | 0.75 (≈ 2.65 µM) | – |
| CCC(=CC(=NO)C(=O)N[C@H](C(=O)O)[C@@H](C)O)C(C)[N+](=O)[O-] (stereo partly drawn) [Example 10, N-(4-Ethyl-2-hydroxyimino-5-nitro-3-hexenoyl)-L-threonine] | 0.3 (≈ 0.945 µM) | – |
| CCC(=CC(=NO)C(=O)NCc1ccccc1)C(C)[N+](=O)[O-] (stereo not drawn) [Example 11, N-Benzyl-4-ethyl-2-hydroxyimino-5-nitro-3-hexenamide] | 0.15 (≈ 0.491 µM) | – |
| CCC(=CC(=NO)C(N)=O)C(c1ccc(OC)cc1)[N+](=O)[O-] (stereo not drawn) [Example 14, 4-Ethyl-2-hydroxyimino-5-(4-methoxyphenyl)-5-nitro-3-pentenamide] | 0.3 (≈ 0.976 µM) | – |
| CCC(=CC(=NO)C(=O)NCCCC(=O)O)C(C)[N+](=O)[O-] (stereo not drawn) [Example 15, N-[4-Ethyl-2-hydroxyimino-5-nitro-3-hexenoyl]-4-aminobutyric acid] | 0.75 (≈ 2.49 µM) | – |
| CCC(=CC(C#N)=NO)C(C)[N+](=O)[O-] (stereo not drawn) [Example 17, 4-Ethyl-2-hydroxyimino-5-nitro-3-hexenenitrile] | 1.5 (≈ 7.61 µM) | – |
| CCC(=CC(C=O)=NO)C(C)[N+](=O)[O-] (stereo not drawn) [Example 18, 4-Ethyl-2-hydroxyimino-5-nitro-3-hexenal] | 3 (≈ 15 µM) | – |
| CCC(=CC(C=NO)=NO)C(C)[N+](=O)[O-] (stereo not drawn) [Example 21, 4-ethyl-2-hydroxyimino-5-nitro-3-hexenaldehyde oxime] | 0.15 (≈ 0.697 µM) | – |
| CCC(=CC(CO)=NO)C(C)[N+](=O)[O-] (stereo not drawn) [Example 22, 4-ethyl-2-hydroxyimino-5-nitro-3-hexen-1-ol] | 0.75 (≈ 3.71 µM) | – |
| CCC(=CC(COC(C)=O)=NO)C(C)[N+](=O)[O-] (stereo not drawn) [Example 23, 1-Acetoxy-4-ethyl-2-hydroxyimino-5-nitro-3-hexene] | 0.15 (≈ 0.614 µM) | – |
| CCC(CC(=NO)C(=O)NC(C)(C)C)C(C)[N+](=O)[O-] (stereo not drawn) [Example 24, N-t-butyl-4-ethyl-2-hydroxyimino-5-nitrohexanamide] | 1.5 (≈ 5.49 µM) | – |
| CCC(CC(=NO)C(N)=O)C(C)[N+](=O)[O-] (stereo not drawn) [Example 25, 4-Ethyl-2-hydroxyimino-5-nitro-hexanamide] | 6 (≈ 27.6 µM) | – |
| CCC(=CC=NO)C(C)[N+](=O)[O-] (stereo not drawn) [Example 28, 3-ethyl-4-nitro-2-pentenaloxime] | 6 (≈ 34.8 µM) | – |

Second part, led by results:

| IC50 [2, 3] [µg/mL] | Compound | further results |
| --- | --- | --- |
| 0.15 (≈ 0.553 µM) | CCCCNC(=O)C(C=C(CC)C(C)[N+](=O)[O-])=NO (stereo not drawn) [Example 2, N-n-butyl-4-ethyl-2-hydroxyimino-5-nitro-3-hexenamide] | – |
| 0.3 (≈ 1.31 µM) | CCC(=CC(=NO)C(=O)NC)C(C)[N+](=O)[O-] (stereo not drawn) [Example 3, N-Methyl-4-ethyl-2-hydroxyimino-5-nitro-3-hexenamide] | – |
| 0.15 (≈ 0.549 µM) | CCC(=CC(=NO)C(=O)NCC(=O)O)C(C)[N+](=O)[O-] (stereo not drawn) [Example 6, N-(4-Ethyl-2-hydroxyimino-5-nitro-3-hexenoyl)glycine] | – |
| 0.07 (≈ 0.287 µM) | CCOC(=O)C(C=C(CC)C(C)[N+](=O)[O-])=NO (stereo not drawn) [Example 19, Ethyl 4-ethyl-2-hydroxyimino-5-nitro-3-hexenoate] | – |
| 0.15 (≈ 0.522 µM) | CCC(=CC(=NO)C(=O)NCC(=O)OC)C(C)[N+](=O)[O-] (stereo not drawn) [Example 20, Methyl 2-[4-ethyl-2-hydroxyimino-5-nitro-3-hexenoylamino]acetate] | – |
